# Paper PMC10223470 (Molecules, 2023)
# Like-named read-outs stand apart in the source and are kept apart here.
# What was measured:
# human 5-HT2A receptor [1] = target: T1, human 5-HT2A receptor (Homo sapiens, UniProt P28223); assay: Competition radioligand binding at human 5-HT2A receptor ([3H]-Ketanserin); settings: mean ± SEM of 2 independent experiments, read-out: hu5-HT2A % inh. at 10 µM
# T1 construct: expressed in transfected cells; host or cells: CHO-K1
# Description: (§1) Competition radioligand binding assays were performed on membranes isolated from cell lines stably expressing the cloned human receptors, which were either in-house or commercially available. […] Assays (250 μL assay final volume) were carried out in 96-well polypropylene plates in duplicate. In short, the suspension of appropriate membrane protein was incubated in an assay buffer with the addition of the corresponding radioligand, in the presence or absence of a tested compound or reference compound. […] After the incubation, the content of the test plates was transferred to 96 well plates with glass fiber filter GF/B or GF/C, previously pretreated with polyethyleneimine (PEI), and rapidly filtered with the use of vacuum, followed by rapid washing with cold (4 °C) wash buffer. After that, the filter plates were dried at 60 °C for 1 h. Then, 30 μL of liquid scintillation cocktail (UniverSol-ES, MP Biomedicals, Solon, OH, USA) was added to each well of the filter plates, and the radioactivity was measured in a MicroBeta^2 microplate scintillation counter (PerkinElmer, Madrid, Spain).
# (§2) Competition binding curves were fitted to a one-site competition binding model (Fit Ki) with the use of Prism 7 software (GraphPad, San Diego, CA, USA). logKi (log of the equilibrium dissociation constant (Ki)) values were obtained after constraining the concentration of radioligand employed in the assay and its dissociation constant (KD) as determined in saturation radioligand binding assays.
# human D2S receptor [2] = target: T2, human D2S receptor (Homo sapiens, UniProt P14416); assay: Functional assays of cAMP signalling at D2 receptors (CHO-K1 cells, HTRF); format: cell-based; settings: for Kb: antagonism of 1 µM dopamine response; for efficacy at D2 receptor (mode of action): cAMP signaling, CHO-K1 cells
# T2 construct: expressed in transfected cells; host or cells: CHO-K1
# Description: The assessment of the activity of selected compounds at the D2 receptor was performed in cell-based functional assays of cAMP signaling, in the CHO-K1 cell line with stable expression of the cloned human D2S receptor, which was also employed for the radioligand binding assays. For D2 receptor antagonism, test compounds were dispensed into an empty 96-well plate (Isoplate-96 Black Frame White Well, PerkinElmer España SL, Madrid, Spain) with the use of the dispensing noncontact Echo 550 acoustic liquid handler (LABCYTE Inc., San Jose, CA, USA). Compounds were handled from frozen 10^−2 M stock solutions in 100% DMSO, from which serial 1000× solutions were prepared in 100% DMSO at the time of the assay, keeping vehicle concentration (0.1% DMSO) constant in the assay. Vials containing viable frozen cells were quickly thawed in a 37 °C water bath and cells were seeded into the assay plate in assay buffer (kit stimulation buffer containing 500 µM 3-isobutyl-1-methylxanthine (IBMX), which was directly added to the buffer as powder). […] After 10 min incubation at 37 °C, 10 µM forskolin was added to the corresponding wells, and incubation was continued for 5 min. After this time, cellular cAMP levels were quantified using the homogeneous time-resolved fluorescence (HTRF)-based cAMP Gs dynamic kit (Cisbio, Bioassays, Codolet, France) according to the manufacturer’s protocol. […] Basal cAMP levels were determined in control wells in the absence of compound, agonist, and forskolin.
# human 5-HT1A receptor [3] = target: T3, human 5-HT1A receptor (Homo sapiens, UniProt P08908); assay: Competition radioligand binding at human 5-HT1A receptor ([3H]-8-OH-DPAT); settings: mean ± SEM of 2 independent experiments, read-out: hu5-HT1A % inh. at 10 µM
# T3 construct: expressed in transfected cells; host or cells: HEK293
# T3 sequence (P08908 1-422): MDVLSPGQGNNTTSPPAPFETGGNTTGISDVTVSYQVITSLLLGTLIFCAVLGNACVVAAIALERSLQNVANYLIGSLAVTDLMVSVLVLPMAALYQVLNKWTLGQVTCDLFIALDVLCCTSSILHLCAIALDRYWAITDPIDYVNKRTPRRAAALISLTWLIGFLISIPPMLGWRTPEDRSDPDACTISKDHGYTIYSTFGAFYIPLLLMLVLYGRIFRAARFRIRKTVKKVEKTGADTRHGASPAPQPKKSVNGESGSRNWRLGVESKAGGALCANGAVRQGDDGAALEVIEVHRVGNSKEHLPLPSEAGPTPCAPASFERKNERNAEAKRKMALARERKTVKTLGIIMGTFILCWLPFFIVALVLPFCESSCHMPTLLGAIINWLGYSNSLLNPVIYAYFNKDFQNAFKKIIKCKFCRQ
# Description: as §1, §2
# [4] = target: T4, human dopamine D3 receptor (Homo sapiens, UniProt P35462); assay: Competition radioligand binding at human D3 receptor ([3H]-Spiperone); settings: mean ± SEM of 2 independent experiments, read-out: huD3 % inh. at 10 µM
# T4 construct: expressed in transfected cells; host or cells: CHO-K1
# Description: as §1, §2
# human 5-HT7 receptor = target: T5, human 5-HT7 receptor (Homo sapiens, UniProt P34969); assay: Competition radioligand binding at human 5-HT7 receptor ([3H]-SB269970); settings: mean ± SEM of 2 independent experiments, read-out: hu5-HT7 % inh. at 10 µM
# T5 construct: expressed in transfected cells; host or cells: HEK293
# Description: as §1, §2
# [5] = target: T6, human dopamine D1 receptor (Homo sapiens, UniProt P21728); assay: Competition radioligand binding at human D1 receptor ([3H]-SCH-23390); settings: mean ± SEM of 2 independent experiments, read-out: huD1 % inh. at 10 µM
# T6 construct: expressed in transfected cells; host or cells: CHO-K1
# Description: as §1, §2
# human D2S receptor [6] = target: T2, human D2S receptor; assay: Competition radioligand binding at human D2 receptor ([3H]-Spiperone, CHO-K1 membranes); settings: mean ± SEM of 2–3 independent experiments in duplicate; read-out: huD2 Ki
# Description: Experiments were carried out in membranes isolated from a CHO-K1 cell line stably overexpressing the cloned human D2S receptor.
# as §1, §2
# human 5-HT2A receptor [7] = target: T1, human 5-HT2A receptor; settings: ref [10]; cited from earlier work
# human D2S receptor [8] = target: T2, human D2S receptor; settings: radioligand binding; ref [10]; read-out: huD2 Ki; cited from earlier work
# [9] = target: T4, human dopamine D3 receptor; settings: ref [10]; cited from earlier work
# human 5-HT1A receptor [10] = target: T3, human 5-HT1A receptor; settings: ref [10]; cited from earlier work
# [11] = target: T6, human dopamine D1 receptor; settings: ref [10]; cited from earlier work
# [12] = Leff-Dougall variant of Cheng-Prusoff, read-out: D2 Signalling (cAMP) Kb (Mean)
# T1 sequence (P28223 whole entry): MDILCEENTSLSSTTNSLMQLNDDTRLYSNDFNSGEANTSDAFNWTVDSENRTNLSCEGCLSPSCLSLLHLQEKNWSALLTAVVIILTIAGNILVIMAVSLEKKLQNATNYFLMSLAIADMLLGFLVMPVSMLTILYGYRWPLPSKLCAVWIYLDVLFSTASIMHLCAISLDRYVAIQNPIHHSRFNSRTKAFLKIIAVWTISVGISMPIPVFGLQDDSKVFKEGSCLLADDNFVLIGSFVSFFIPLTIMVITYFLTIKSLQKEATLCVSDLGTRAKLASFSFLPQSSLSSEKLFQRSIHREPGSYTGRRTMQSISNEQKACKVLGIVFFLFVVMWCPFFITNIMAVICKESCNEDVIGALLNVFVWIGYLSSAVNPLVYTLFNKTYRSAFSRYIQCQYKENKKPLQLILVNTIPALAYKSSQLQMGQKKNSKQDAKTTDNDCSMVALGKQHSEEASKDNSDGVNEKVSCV
# T4 sequence (P35462 whole entry): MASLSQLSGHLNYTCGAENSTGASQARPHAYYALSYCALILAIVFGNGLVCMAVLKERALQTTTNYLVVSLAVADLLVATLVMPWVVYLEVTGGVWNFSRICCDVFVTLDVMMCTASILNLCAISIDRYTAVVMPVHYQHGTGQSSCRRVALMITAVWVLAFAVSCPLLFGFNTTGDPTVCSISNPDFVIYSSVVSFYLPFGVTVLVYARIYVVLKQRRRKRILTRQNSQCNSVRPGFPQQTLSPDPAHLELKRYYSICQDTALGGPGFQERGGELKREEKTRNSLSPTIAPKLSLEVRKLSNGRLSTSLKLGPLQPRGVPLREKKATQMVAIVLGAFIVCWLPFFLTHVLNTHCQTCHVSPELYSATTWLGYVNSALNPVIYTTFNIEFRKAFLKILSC
# T6 sequence (P21728 whole entry): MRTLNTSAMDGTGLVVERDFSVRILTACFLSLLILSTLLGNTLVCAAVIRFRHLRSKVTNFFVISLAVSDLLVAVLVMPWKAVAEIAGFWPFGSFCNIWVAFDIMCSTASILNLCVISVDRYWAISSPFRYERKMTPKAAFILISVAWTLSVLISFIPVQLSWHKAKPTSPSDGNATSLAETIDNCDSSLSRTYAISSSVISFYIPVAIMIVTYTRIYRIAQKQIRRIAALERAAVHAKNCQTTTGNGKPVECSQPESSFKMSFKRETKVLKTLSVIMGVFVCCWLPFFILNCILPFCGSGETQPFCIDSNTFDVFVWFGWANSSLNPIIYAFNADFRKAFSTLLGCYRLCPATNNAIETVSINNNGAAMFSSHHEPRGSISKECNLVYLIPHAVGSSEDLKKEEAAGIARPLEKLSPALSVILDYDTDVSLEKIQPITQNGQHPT
# T2 sequence (P14416 1-414 isoform P14416-2): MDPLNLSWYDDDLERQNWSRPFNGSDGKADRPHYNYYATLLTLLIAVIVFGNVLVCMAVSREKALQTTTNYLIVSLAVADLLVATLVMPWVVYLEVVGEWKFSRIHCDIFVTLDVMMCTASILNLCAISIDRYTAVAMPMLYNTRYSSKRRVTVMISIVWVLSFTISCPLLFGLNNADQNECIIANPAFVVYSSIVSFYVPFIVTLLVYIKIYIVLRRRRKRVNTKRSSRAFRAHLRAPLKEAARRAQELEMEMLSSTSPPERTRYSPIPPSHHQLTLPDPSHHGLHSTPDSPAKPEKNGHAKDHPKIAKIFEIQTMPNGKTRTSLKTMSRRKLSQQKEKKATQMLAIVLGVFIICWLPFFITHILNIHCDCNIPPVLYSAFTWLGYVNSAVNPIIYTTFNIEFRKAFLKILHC
# T5 sequence (P34969 whole entry): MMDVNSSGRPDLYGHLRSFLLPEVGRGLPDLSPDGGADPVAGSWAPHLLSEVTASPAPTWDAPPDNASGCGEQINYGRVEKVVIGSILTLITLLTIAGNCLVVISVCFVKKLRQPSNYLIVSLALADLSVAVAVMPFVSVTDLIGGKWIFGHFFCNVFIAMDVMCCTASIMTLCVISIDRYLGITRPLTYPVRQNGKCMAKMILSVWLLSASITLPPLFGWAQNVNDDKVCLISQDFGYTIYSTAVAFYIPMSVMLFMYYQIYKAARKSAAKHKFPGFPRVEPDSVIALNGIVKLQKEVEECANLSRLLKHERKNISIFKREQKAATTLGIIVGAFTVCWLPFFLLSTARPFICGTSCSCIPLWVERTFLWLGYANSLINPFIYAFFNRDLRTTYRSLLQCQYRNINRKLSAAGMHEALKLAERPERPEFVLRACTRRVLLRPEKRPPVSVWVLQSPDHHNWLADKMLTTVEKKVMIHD
Compound,inhibition at 10 µM (human 5-HT2A receptor [1]),"Kb (human D2S receptor [2]; forskolin-stimulated cAMP, three independent experiments, read-out: D2 Signalling (cAMP) pKb (Mean ± SEM) (converted))",Kb (human D2S receptor [2]; [12]),efficacy at D2 receptor (mode of action) (human D2S receptor [2]),inhibition at 10 µM (human 5-HT1A receptor [3]),inhibition at 10 µM [4],inhibition at 10 µM (human 5-HT7 receptor),inhibition at 10 µM [5],Ki (human D2S receptor [6]),activity at serotonin 5-HT2A receptor (human 5-HT2A receptor [7]),Ki (human D2S receptor [8]),activity at dopamine D3 receptor [9],activity at serotonin 5-HT1A receptor (human 5-HT1A receptor [10]),activity at dopamine D1 receptor [11]
"Cc1ccc(NC(=O)CCN2C(=O)CSc3ccccc32)cc1 [Compound 14, 3-(3-Oxo-2,3-dihydro-4H-benzo[b][1,4]thiazin-4-yl)-N-(p-tolyl)propanamide]",15 ± 1%,0.117 µM,0.119 µM,antagonism,27 ± 2%,8 ± 4%,0%,15 ± 2%,0.676 ± 0.134 µM,–,–,–,–,–
"O=C(CCN1C(=O)CSc2ccccc21)Nc1ccc([N+](=O)[O-])cc1 [Compound 23, N-(4-Nitrophenyl)-3-(3-oxo-2,3-dihydro-4H-benzo[b][1,4]thiazin-4-yl)propanamide]",23 ± 3%,–,0.113 µM,antagonism,22 ± 3%,4 ± 3%,0%,12 ± 2%,0.724 ± 0.114 µM,–,–,–,–,–
O=C(CCN1C(=O)CSc2ccccc21)Nc1ccc(C(F)(F)F)cc1 [Compound D2AAK2],–,–,–,–,–,–,–,–,–,not active,0.321 ± 0.025 µM,not active,not active,not active
